Experimental findings from patent US12421212B2, “Substituted benzenecarboxamides as IL-17A modulators” (DiCE Alpha, Inc., priority 2019, dated 2025) are described below.

Bounds are passed on as bounds.

The first experiment concerns the target T1, IL-17A/A (Homo sapiens, UniProt Q16552).
T1 construct: purchased Genscript Z03228
T1 sequence (Q16552 24-155): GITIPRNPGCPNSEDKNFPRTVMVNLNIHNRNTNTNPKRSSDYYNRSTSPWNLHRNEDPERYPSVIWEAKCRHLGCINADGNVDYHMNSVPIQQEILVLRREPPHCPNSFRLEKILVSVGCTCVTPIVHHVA
The experiment can be described thus: IL-17A/A HEK-Blue Cell Assay. It counts as cell-based. The settings on record: HEK-Blue IL-17A reporter cell line, SEAP readout at A630, 20 hours incubation with IL-17A/A; top concentration 10 uM, 1 uM or 0.3 uM. Here is the method: The HEK-Blue IL-17A reporter cell line (Fisher #NC1408637) was used for cell-based IL-17A/A inhibition assays. Cells were grown and prepared for assays according to the manufacturer's instructions. This cell line consists of HEK 293 cells that were designed to expressed IL-17RA, IL-17RC, and the ActI adapter molecule, the combination of which, when stimulated by IL-17A/A activates a NFκB promoter and drives expression of a recombinant Secreted Alkaline Phosphatase (SEAP) geneprotein. Media from the cells is then added to a development reagent (Quanti-Blue Substrate, Fisher #NC9711613), and read at A630.
Compounds were titrated in DMSO, with a top final compound concentration of 10 uM, 1 uM, or 0.3 uM, and added to the cells immediately before adding IL-17A/A (Genscript #Z03228). The cells, compound, and IL-17A/A were then incubated for 20 hours before media was removed for SEAP analysis. The resulting inhibition curve was then analyzed using Graphpad Prism 7.0, and IC50 values were determined using a 4-parameter nonlinear fit. DMSO was added to a universal final concentration of 0.1% to optimize background.
As for `CCC(=O)N[C@@H](C(=O)N1CCN(C)CC1)[C@@H](C)c1ccc(NC(=O)C(NC(=O)c2ccnn2CC)C(OC)c2ccc(F)cc2)c(F)c1` (single isomer, unassigned) [Compound 608], the “IL-17A/A inhibition (pIC50)” value was “X3b (compounds were evaluated up to 0.3 uM and inhibited activity at 0.3 uM by less than 20%)”.

In the case of `CCC(=O)N[C@@H](C(=O)N1CCN(C)CC1)[C@@H](C)c1ccc(NC(=O)C(NC(=O)c2nonc2CC)C(OC)c2ccc(F)cc2)c(F)c1` (single isomer, unassigned) [Compound 609], the “IL-17A/A inhibition (pIC50)” value was “X2b (compounds were evaluated up to 1 uM and inhibited activity at 1 uM by less than 20%)”.

For the molecule `CCC(=O)N[C@@H](C(=O)N1CCN(C)CC1)[C@@H](C)c1ccc(NC(=O)C(NC(=O)c2nonc2CC)C(C)C2CCC(C)CC2)c(F)c1` (single isomer, unassigned) [Compound 613], the “IL-17A/A inhibition (pIC50)” value is “X2b (compounds were evaluated up to 1 uM and inhibited activity at 1 uM by less than 20%)”.

For the molecule `CCC(=O)NC(C(=O)NCC1CCC1)C(C)c1ccc(NC(=O)[C@@H](NC(=O)c2ccnn2CC)[C@H]2CC[C@H](C)CC2)c(F)c1` (single isomer, unassigned) [Compound 662], the “IL-17A/A inhibition (pIC50)” value is “X3a (compounds were evaluated up to 0.3 uM and did not inhibit activity by >80%, however they showed some activity at 0.3 uM (less than 80% and more than 20%))”.

On to `CCC(=O)NC(C(=O)N1CCN(Cc2ccccc2)CC1)C(C)c1ccc(NC(=O)[C@@H](NC(=O)c2ccnn2CC)[C@H]2CC[C@H](C)CC2)c(F)c1` (single isomer, unassigned) [Compound 663], for which the “IL-17A/A inhibition (pIC50)” value was “X3b (compounds were evaluated up to 0.3 uM and inhibited activity at 0.3 uM by less than 20%)”.

Regarding `CCC(=O)N[C@@H](C(=O)N1CCN(C)CC1)[C@@H](C)c1ccc(NC(=O)C(NC(=O)c2ccnn2CC)C2CCc3ccccc32)c(F)c1` (single isomer, unassigned) [Compound 753], the “IL-17A/A inhibition (pIC50)” value was “X2b (compounds were evaluated up to 1 uM and inhibited activity at 1 uM by less than 20%)”.

The experiment is the same for the next values; noted with them: HEK-Blue IL-17A reporter cell line, SEAP readout at A630, 20 hours incubation with IL-17A/A; top concentration 10 uM, 1 uM or 0.3 uM; read-out: IL-17A/A inhibition (pIC50) (converted).
Turning to `CCn1nccc1C(=O)N[C@H](C(=O)Nc1ccc([C@H](C)C(NC(=O)C(F)C2CC2)C(=O)N2CCN(C)[C@H](C)C2)cc1F)[C@H]1CC[C@H](C)CC1` (single isomer, unassigned) [Compound 602], the IC50 is < 10 nM.

As to `CCC(=O)N[C@@H](C(=O)N1CCN(C)CC1)[C@@H](C)c1ccc(NC(=O)C(NC(=O)c2ccnn2CC)C(C)C2CCC(F)(F)CC2)c(F)c1` (single isomer, unassigned) [Compound 606], the IC50 is 10 to 100 nM.

As for `CCC(=O)N[C@@H](C(=O)N1CCN(C)CC1)C(OC)c1ccc(NC(=O)[C@@H](NC(=O)c2ccnn2CC)[C@H]2CC[C@H](C)CC2)c(F)c1` (single isomer, unassigned) [Compound 614], the IC50 was 100 to 10000 nM.

On to `[2H]C([2H])([2H])C1CCC(C(NC(=O)c2nonc2CC)C(=O)Nc2ccc([C@H](C)[C@@H](NC(=O)N(C)C3CC3)C(=O)N3CCN(C)[C@H](C)C3)cc2F)CC1` (single isomer, unassigned) [Compound 615], for which the IC50 is < 10 nM.

Consider `CCC(=O)N[C@@H](C(=O)N1CCN(C)CC1)[C@@H](C)c1ccc(NC(=O)C(NC(=O)c2ccnn2CC)C2CCc3cc(F)cc(F)c32)c(F)c1` (single isomer, unassigned) [Compound 809], for which the IC50 is < 10 nM.

With `CCC(=O)N[C@H](Cc1ccc(NC(=O)[C@@H](NC(=O)C(F)(F)c2ccc(OC)nc2)C2CCCCC2)c(F)c1)C(=O)N1CCN(C)CC1` [Compound 203], the IC50 was 100 to 10000 nM.

For `CCC(=O)N[C@H](Cc1ccc(NC(=O)[C@@H](NC(=O)C(F)(F)c2ccccc2)C2CCCCC2)c(F)c1)C(=O)N1CCN(C)CC1` [Compound 204], the IC50 is 100 to 10000 nM.

Regarding `CCC(=O)N[C@H](Cc1ccc(NC(=O)[C@@H](NC(=O)C(F)(F)c2cccnc2)C2CCCCC2)c(F)c1)C(=O)N1CCN(C)CC1` [Compound 205], the IC50 was 100 to 10000 nM.

For `CCC(=O)N[C@H](Cc1ccc(NC(=O)[C@@H](NC(=O)C(F)(F)c2ccc(OC)cc2)C2CCCCC2)c(F)c1)C(=O)N1CCN(C)CC1` [Compound 206], the IC50 was 100 to 10000 nM.

For `CCC(=O)N[C@H](Cc1ccc(NC(=O)[C@@H](NC(=O)C(F)(F)c2cccc(OC)c2)C2CCCCC2)c(F)c1)C(=O)N1CCN(C)CC1` [Compound 207], the IC50 is 100 to 10000 nM.

In the case of `CCC(=O)N[C@H](Cc1ccc(NC(=O)[C@@H](NC(=O)C(F)(F)c2ccc(C)nc2)C2CCCCC2)c(F)c1)C(=O)N1CCN(C)CC1` [Compound 208], the IC50 was 100 to 10000 nM.

For `CCC(=O)N[C@H](Cc1ccc(NC(=O)[C@@H](NC(=O)C(F)(F)c2ccc(C)cc2)C2CCCCC2)c(F)c1)C(=O)N1CCN(C)CC1` [Compound 210], the IC50 was 100 to 10000 nM.

Turning to `CCC(=O)N[C@H](Cc1ccc(NC(=O)[C@@H](NC(=O)C(F)(F)c2ccc(Cl)cc2)C2CCCCC2)c(F)c1)C(=O)N1CCN(C)CC1` [Compound 211], the IC50 was 100 to 10000 nM.

As for `CCC(=O)N[C@H](Cc1ccc(NC(=O)[C@@H](NC(=O)C(F)(F)c2cncs2)C2CCCCC2)c(F)c1)C(=O)N1CCN(C)CC1` [Compound 213], the IC50 is 100 to 10000 nM.

`CCC(=O)N[C@H](Cc1ccc(NC(=O)[C@@H](NC(=O)C(F)(F)c2ccc(OC)nc2)C2CCCCCC2)c(F)c1)C(=O)N1CCN(C)CC1` [Compound 214]: the IC50 is 10 to 100 nM.

Consider `CCC(=O)N[C@H](Cc1ccc(NC(=O)[C@@H](NC(=O)C(F)(F)c2ccc(OC)nc2)C2CCC(F)(F)CC2)c(F)c1)C(=O)N1CCN(C)CC1` [Compound 215], for which the IC50 is 100 to 10000 nM.

As for `CCC(=O)N[C@H](Cc1ccc(NC(=O)[C@@H](NC(=O)C(F)(F)c2ccc(OC)nc2)[C@H]2CC[C@H](C)CC2)c(F)c1)C(=O)N1CCN(C)CC1` [Compound 216], the IC50 is 100 to 10000 nM.

With `CCC(=O)N[C@H](Cc1ccc(NC(=O)[C@@H](NC(=O)C(F)(F)c2ccc(=O)[nH]c2)C2CCCCC2)c(F)c1)C(=O)N1CCN(C)CC1` [Compound 217], the IC50 was 100 to 10000 nM.

On to `CCC(=O)N[C@@H](C(=O)N1CCN(C)CC1)[C@@H](C)c1ccc(NC(=O)[C@@H](NC(=O)C(F)(F)c2ccc(OC)nc2)C2CCCCC2)c(F)c1` [Compound 218], for which the IC50 was 10 to 100 nM.

`CCC(=O)N[C@@H](C(=O)N1CCN(C)CC1)[C@@H](C)c1ccc(NC(=O)[C@@H](NC(=O)C(F)(F)c2ccc(OC)nc2)C2CCCCCC2)c(F)c1` [Compound 219]: the IC50 was 10 to 100 nM.

For the molecule `CCC(=O)N[C@@H](C(=O)N1CCN(C)CC1)[C@@H](C)c1ccc(NC(=O)[C@@H](NC(=O)C(F)(F)c2ccc(OC)nc2)C2CCC(F)(F)CC2)c(F)c1` [Compound 220], the IC50 is 10 to 100 nM.

Turning to `CCC(=O)N[C@@H](C(=O)N1CCN(C)CC1)[C@@H](C)c1ccc(NC(=O)[C@@H](NC(=O)C(F)(F)c2ccc(OC)nc2)C2CCCCC2)cc1` [Compound 221], the IC50 was 10 to 100 nM.

On to `CCC(=O)N[C@@H](C(=O)N1CCN(C)CC1)[C@@H](C)c1ccc(NC(=O)[C@@H](NC(=O)C(F)(F)c2ccc(OC)nc2)C2CCCCCC2)cc1` [Compound 222], for which the IC50 was 10 to 100 nM.

For `COc1ccc(C(F)(F)C(=O)N[C@H](C(=O)Nc2ccc([C@H](C)[C@@H](NC(=O)c3cnns3)C(=O)N3CCN(C)CC3)cc2F)C2CCCCC2)cn1` [Compound 224], the IC50 is < 10 nM.

In the case of `CCC(=O)N[C@@H](C(=O)N1CCN(C)CC1)[C@@H](CC)c1ccc(NC(=O)[C@@H](NC(=O)C(F)(F)c2ccc(OC)nc2)C2CCCCCC2)cc1` [Compound 227], the IC50 is 10 to 100 nM.

`CCC(=O)N[C@@H](C(=O)N1CCN(C)CC1)[C@@H](C)c1ccc(NC(=O)[C@@H](NC(=O)c2ccnn2CC)C2CCCCCC2)c(F)c1` [Compound 228]: the IC50 was < 10 nM.

In the case of `CCC(=O)N[C@@H](C(=O)N1CCN(C)CC1)[C@@H](C)c1ccc(NC(=O)[C@@H](NC(=O)c2ccnn2CC)C2CCCCC2)c(F)c1` [Compound 229], the IC50 is 10 to 100 nM.

`CCC(=O)N[C@@H](C(=O)N1CCN(C)CC1)[C@@H](C)c1ccc(NC(=O)[C@@H](NC(=O)C(F)(F)c2cccc(C#N)c2)C2CCCCC2)c(F)c1` [Compound 230]: the IC50 was < 10 nM.

Turning to `CCC(=O)N[C@@H](C(=O)N1CCN(C)CC1)[C@@H](C)c1ccc(NC(=O)[C@@H](NC(=O)c2ccnn2C(C)C)C2CCCCCC2)cc1` [Compound 232], the IC50 was 10 to 100 nM.

On to `CCC(=O)N[C@@H](C(=O)N1CCN(C)CC1)[C@@H](C)c1ccc(NC(=O)[C@@H](NC(=O)c2ccnn2CC)[C@H]2CC[C@H](C)CC2)c(F)c1` [Compound 234], for which the IC50 is 10 to 100 nM.

Turning to `CCC(=O)N[C@H](Cc1ccc(NC(=O)[C@@H](NC(=O)c2ccnn2CC)C2CCCCCC2)c(F)c1)C(=O)N1CCN(C)CC1` [Compound 235], the IC50 is 10 to 100 nM.

As to `CCC(=O)N[C@H](Cc1ccc(NC(=O)[C@@H](NC(=O)c2conc2CC)C2CCCCCC2)c(F)c1)C(=O)N1CCN(C)CC1` [Compound 236], the IC50 was 10 to 100 nM.

As for `CCCn1nccc1C(=O)N[C@H](C(=O)Nc1ccc(C[C@@H](NC(=O)CC)C(=O)N2CCN(C)CC2)cc1F)C1CCCCC1` [Compound 237], the IC50 is 10 to 100 nM.
